# Experimental data reported in paper PMC7897990, “TriTOX: A novel Trichomonas vaginalis assay platform for high-throughput screening of compound libraries” (International Journal for Parasitology: Drugs and Drug …, 2021).
# Where two headings read alike, the source gives them in different places.
# Assays:
# [1] = tested on: Trichomonas vaginalis G3 trophozoites; details: for T.vaginalis_Absorbance_Rep1: replicate 1, raw absorbance; for T.vaginalis_Absorbance_Rep2: replicate 2, raw absorbance
# [2] = tested on: nontumorigenic neonatal foreskin fibroblast (NFF) cell line
# [3] = HTS, parasite screen at 1 µg/mL, replicate 1
# [4] = HTS, parasite screen at 1 µg/mL
# [5] = HTS, parasite screen at 1 µg/mL, replicate 2
# [6] = HTS single concentration, parasite screen 1 µg/mL, replicate 1
# [7] = HTS single concentration, parasite screen 1 µg/mL, replicate 2
# [8] = NFF_NS1 screen 5 µg/mL, single concentration
# [9] = replicate 1, parasite screen at 1 µg/mL
# [10] = replicate 2, parasite screen at 1 µg/mL
# [11] = parasite screen at 1 µg/mL, replicate 1
# [12] = parasite screen at 1 µg/mL, replicate 2
# [13] = NFF_NS1 screen at 5 µg/mL, NFF cells
smiles,measurement,setting,value
CC[C@H]1OC(=O)[C@H](C)[C@@H](O[C@H]2C[C@@](C)(OC)[C@@H](O)[C@H](C)O2)[C@H](C)[C@@H](O[C@@H]2O[C@H](C)C[C@H](N(C)C)[C@H]2O)[C@](C)(O)C[C@@H](C)C(=NO)[C@H](C)[C@@H](O)[C@]1(C)O [Erythromycin A oxime],T.vaginalis_%inb_Rep1,[1]; [3],3.82%
same,T.vaginalis_Absorbance_Rep1,[1]; [4],0.78
same,T.vaginalis_%inb_Rep2,[1]; [5],4.19%
same,T.vaginalis_Absorbance_Rep2,[1]; [4],0.678
same,NFF_Activity,[2]; NFF_NS1 screen at 5 µg/mL,I (otherwise these were reported as inactive (I))
O=c1cccc2n1C[C@H]1C[C@@H]2CN2CCCC[C@H]12 [BIA-A1939],T.vaginalis_%inb_Rep1,[1]; [6],7.92%
same,T.vaginalis_%inb_Rep2,[1]; [7],14.14%
same,NFF_Activity,[2]; [8],I (otherwise these were reported as inactive (I))
CCCCCc1c2c(cc(O)c1C(=O)O)OC(=O)c1c(cc(OC)cc1C(=O)CCCC)O2 [BIA-L1671],T.vaginalis_%inb_Rep1,[1]; [9],10.45%
same,T.vaginalis_%inb_Rep2,[1]; [10],14.37%
same,NFF_Activity,"[2]; NFF cells, screen at 5 µg/mL",I (otherwise these were reported as inactive (I))
CN(C)[C@@H]1C(O)=C(C(=O)NCN2CCCC2)C(=O)[C@@]2(O)C(O)=C3C(=O)c4c(O)cccc4[C@@](C)(O)[C@H]3C[C@@H]12 [BIA-R1460],T.vaginalis_%inb_Rep1,[1]; [11],13.95%
same,T.vaginalis_%inb_Rep2,[1]; [12],12.12%
same,NFF_Activity,[2]; [13],I (otherwise these were reported as inactive (I))
"CC1CCCC(O)CCCCCc2cc(O)cc(O)c2C(=O)O1 (stereo not drawn) [Zearalanol, alpha-]",T.vaginalis_%inb_Rep1,[1]; [3],6.97%
same,T.vaginalis_%inb_Rep2,[1]; [5],13.04%
same,NFF_Activity,"[2]; NFF fibroblast screen at 5 µg/mL, A = active, I = inactive",I (otherwise these were reported as inactive (I))
Oc1cccc2nc3ccccc3nc12 [BIA-H1520],T.vaginalis_%inb_Rep1,[1]; [9],9.69%
same,T.vaginalis_%inb_Rep2,[1]; [10],12.89%
same,NFF_Activity,"[2]; NFF cells, screen at 5 µg/mL",I (otherwise these were reported as inactive (I))
COc1ccc2[nH]c3c(C)c4ccncc4c(C)c3c2c1 [BIA-M1952],T.vaginalis_%inb_Rep1,[1]; [9],5.30%
same,T.vaginalis_%inb_Rep2,[1]; [10],7.25%
same,NFF_Activity,"[2]; NFF cells, screen at 5 µg/mL",A (active (A) compounds having >25% inhibitory activity)
CC[C@H](C)[C@H]1O[C@]2(C=C[C@@H]1C)C[C@@H]1C[C@@H](C/C=C(\C)[C@@H](O[C@H]3C[C@H](OC)[C@@H](O[C@H]4C[C@H](OC)[C@H](NC)[C@H](C)O4)[C@H](C)O3)[C@@H](C)/C=C/C=C3\CO[C@@H]4[C@H](O)C(C)=C[C@@H](C(=O)O1)[C@]34O)O2 [Emamectin B1a],T.vaginalis_%inb_Rep1,[1]; [3],15.19%
same,T.vaginalis_Absorbance_Rep1,[1]; [4],0.991
same,T.vaginalis_%inb_Rep2,[1]; [5],5.71%
same,T.vaginalis_Absorbance_Rep2,[1]; [4],0.699
same,NFF_Activity,[2]; NFF_NS1 screen at 5 µg/mL,A (active (A) compounds having >25% inhibitory activity)
COc1oc(C2C/C(=C/C(C)=C/C(C)=C/C(C)=C/c3ccc([N+](=O)[O-])cc3)CO2)c(C)c(=O)c1C (stereo not shown) [Neoaureothin],T.vaginalis_%inb_Rep1,"[1]; HTS replicate 1, parasite screen 1 µg/mL",14.76%
same,T.vaginalis_%inb_Rep2,"[1]; HTS replicate 2, parasite screen 1 µg/mL",12.19%
same,NFF_Activity,"[2]; NFF fibroblasts, single concentration 5 µg/mL",I (otherwise these were reported as inactive (I))
C=C1CCOC2(C(O)C(C)(O)CO)NC(=O)C1(O)NC2=O (stereo not shown) [BIA-B1367],T.vaginalis_%inb_Rep1,[1]; [6],15.02%
same,T.vaginalis_%inb_Rep2,[1]; [7],15.26%
same,NFF_Activity,[2]; [8],I (otherwise these were reported as inactive (I))
C[C@@H](O)[C@H]1C(=O)N2C(C(=O)[O-])=C(SC3Cn4cnc[n+]4C3)[C@H](C)[C@H]12 (stereo partly shown) [BIA-B1663],T.vaginalis_%inb_Rep1,[1]; [6],15.29%
same,T.vaginalis_%inb_Rep2,[1]; [7],20.32%
same,NFF_Activity,[2]; [8],I (otherwise these were reported as inactive (I))
CCCCCCCCCCCCCC(=O)N[C@H]1CCOC1=O [BIA-T1499],T.vaginalis_%inb_Rep1,[1]; [11],6.40%
same,T.vaginalis_%inb_Rep2,[1]; [12],13.16%
same,NFF_Activity,[2]; [13],I (otherwise these were reported as inactive (I))
COC1=CC(C)=CC(C)C(O)C(C)CC(C)=CC=CC(OC)C(C(C)C(O)C(C)C(=O)C=CC(C)C(O)C(C)C)OC1=O (stereo not shown) [BIA-B1162],T.vaginalis_%inb_Rep1,[1]; [6],15.67%
same,T.vaginalis_%inb_Rep2,[1]; [7],18.37%
same,NFF_Activity,[2]; [8],I (otherwise these were reported as inactive (I))
